Measured values taken from patent US20020039597A1, “STABILIZED COMPOSITIONS CONTAINING BENZIMIDAZOLE-TYPE COMPOUNDS” (priority 1998, published 2002).

Experiments:
[1] = Compatibility test of sodium rabeprazole with additives (residual content by HPLC, visual coloring); type: physicochemical; settings: 1 week, cold place sample = 100%; for residual content of sodium rabeprazole, 40° C.-75% RH: 40° C. 75% relative humidity
Procedure: 50 mg sodium rabeprazole and 450 mg additives shown in the table below were mixed in a mortar. The mixture was introduced into a transparent glass vial and stored in a cold place or at 60° C. or 40° C. under 75% relative humidity for 1 week and their content was determined by high performance liquid chromatography. Assuming that the content of the sample stored in the cold place is 100%, the degrees of the residual content under the respective conditions are shown in Tables 1 through 3. Further, their coloring changes were visually evaluated. The sodium rabeprazole used was amorphous in Table land crystalline in Tables 2 and 3. In Table 1, low-substituted hydroxypropyl cellulose (expressed as L-HPC) used as a disintegrating agent in addition to amorphous sodium rabeprazole was blended in the control; in Table 2, a sample further incorporating aluminum hydroxide (expressed as Al(OH) 3 in the table) i.e. an alkaline inorganic salt used as an antacid agent was used; and in Table 3, a sample incorporating polyvinyl pyrrolidone (expressed as PVP in the table) was used as a binder.

[2] = Amount of peroxide in crospovidone mixed with sodium sulfite (Japanese Pharmacopoeia test method); type: physicochemical
Procedure: Further, 1 g crospovidone containing 201 ppm peroxide was accurately taken, and sodium sulfite (amounts: 4 levels i.e. no addition, 0.02%, 0.05% and 0.10%) was added thereto and mixed well, and the amount of the peroxide in the mixture was determined according to a test method described in the Japanese Pharmacopoeia.

[3] = Table 1, amorphous sodium rabeprazole 50 mg + 450 mg additive
[4] = Table 2, crystalline sodium rabeprazole 50 mg + 450 mg additive
[5] = Table 3, crystalline sodium rabeprazole 50 mg + 450 mg additive

## COCCCOc1ccnc(C[S+]([O-])c2nc3ccccc3[nH]2)c1C (stereo not drawn) [sodium rabeprazole (amorphous), sodium rabeprazole]
[1]; [3]
  residual content of sodium rabeprazole, 40° C.-75% RH: 93.9%
  residual content of sodium rabeprazole, 60° C.: 99.1%

## O=S([O-])[O-].[Na+].[Na+] [sodium sulfite]
[2]; 0.02% sodium sulfite added to 1 g crospovidone containing 201 ppm peroxide
  amount of the peroxide in the composition: 184 ppm
[2]; 0.05% sodium sulfite added to 1 g crospovidone containing 201 ppm peroxide
  amount of the peroxide in the composition: 108 ppm
[2]; 0.10% sodium sulfite added to 1 g crospovidone containing 201 ppm peroxide
  amount of the peroxide in the composition: 0 ppm

## COCCCOc1ccnc(C[S+]([O-])c2nc3ccccc3[nH]2)c1C (stereo not drawn) [sodium rabeprazole (crystalline), sodium rabeprazole]
[1]; [4]
  residual content of sodium rabeprazole, 40° C.-75% RH: 91.8%
  residual content of sodium rabeprazole, 60° C.: 99.8%
[1]; [5]
  residual content of sodium rabeprazole, 40° C.-75% RH: 86.9%
  residual content of sodium rabeprazole, 60° C.: 97.3%
